According to patent US11466006B2, “Dual selective PI3 delta and gamma kinase inhibitors” (Rhizen Pharmaceuticals SA, priority 2013, dated 2022):

Key:
Pi3K β = target: T1, Pi3K β (Homo sapiens, UniProt P42338); test: Fluorescent (HTRF) determination of PI3 kinase enzyme activity, beta isoform; type: biochemical; conditions: Table 1, HTRF
T1 construct: purchased Millipore (assay kit)
Excerpt: (§1) Phosphoinositide 3 kinases (PI3K) belong to a class of lipid kinases that play a critical role in the regulation of several key cellular processes. The PI3K are capable of phosphorylating the 3-hydroxy position of phosphoinositols thereby generating second messengers involved in downstream signalling events. The homogenous time resolved fluorescence (HTRF) assay allows detection of 3,4,5-triphosphate (PIP3) formed as a result of phosphorylation of phosphotidylinositol 4,5-biphosphate (PIP2) by PI3K isoforms such as α, β, γ or δ.
(§2) PI3K isoform activity for α, β, γ or δ was determined using a PI3K human HTRF™ Assay Kit (Millipore, Billerica, Mass.) with modifications. All incubations were carried out at room temperature. Briefly, 0.5 μl of 40× inhibitor (in 100% DMSO) or 100% DMSO were added to each well of a 384-well white plate (Greiner Bio-One, Monroe, N.C.) containing 14.5 μl 1× reaction buffer /PIP2 (10 mM MgCl2, 5 mM DTT, 1.38 μM PIP2) mix with or without enzyme, followed by 5 μl/well of 400 μM ATP and incubated for an additional 30 minutes. Reaction was terminated by adding 5 μl/well stop solution (Millipore, Billerica, Mass.). […] HRTF ratio was measured on a microplate reader (BMG Labtech., Germany) at an excitation wavelength of 337 nm and emission wavelengths of 665 and 615 nm with an integration time of 400 msec counting delay of 50 msec.

Female Wistar rats = test: Lipopolysaccharide induced pulmonary neutrophilia in female Wistar rat model; type: in vivo; conditions: Neutrophil, oral gavage, 1 h before intratracheal LPS, BAL at 6 h, read-out: ED50, reduction of neutrophil infiltration into the lungs
Description: After the quarantine period, fasted animals were randomized and divided into various groups depending on their body weights. The test compound [Compound A1] was prepared as a suspension in a vehicle consisting of 0.5% methylcellulose in which Tween 80 as a suspending agent. The compound or vehicle was administered by oral gavage in a volume of 10 mL/kg. Female Wistar rats were anaesthetized with ketamine and LPS solution was administered intratracheally one hour after compound administration at a dose of 1 mg/kg. 6 h after LPS instillation, animals were exsanguinated under anaesthesia, and then trachea was cannulated and the lungs were lavaged with 5-ml aliquots of heparinised PBS (1 unit/ml) four times through tracheal cannula (total volume 20 ml). Bronchoalveolar lavage (BAL) fluid was been stored at 2-8° C. until assayed for total cell and differential leukocyte count. Bronchioalveolar fluid was centrifuged (500×g for 10 min) and the resulting cell pellet was resuspended in 0.5 ml of heparinised saline. The total numbers of white blood cells were determined in BAL fluid or blood by using a blood cell counter and was adjusted to 1×10^6 cell/ml. Differential cell count was calculated manually. […] The number of each cell type among 300 white blood cells in the cell smear was determined and expressed as a percentage. The number of eosinophil in each BALf or blood was calculated.

pAKT = pAKT inhibition in human primary CTCL cells (flow cytometry); type: cell-based; conditions: cytokine mix stimulated, read-out: EC50, reduction of AKT phosphorylation
Description: Flow cytometry analysis of pAKT inhibition: Purified malignant T cells were isolated from donors and cultured overnight in RPMI/1% BSA. Cells were incubated with the test compound for 1.5 hr with a cytokine mix added for the final 30 minutes. The composition of the cytokine mix was 20 ng/ml IL2+5 ng/ml IL7+10 ng/ml IL15+10% FBS. AKT phosphorylation was determined by flow cytometry.

Pi3K γ = Pi3K γ (Homo sapiens, UniProt P48736); test: Fluorescent (HTRF) determination of PI3 kinase enzyme activity, gamma isoform; type: biochemical; set-up: purchased Millipore (assay kit); conditions: Table 1, HTRF; read-out: IC50 (nM) Pi3K γ
Excerpt: as §1, §2

PI3K beta = target: T2, PI3K beta (Mus musculus, UniProt Q8BTI9); test: LPA induced AktS473 phosphorylation in 3T3 fibroblasts (PI3Kβ selectivity); type: cell-based; conditions: read-out: Cellular IC50 PI3K beta (LPA induced pAKT in 3T3 fibroblasts)
T2 construct: 3T3 cells were treated with desired concentrations of the test compound for 15 min; endogenous in cells; host or cells: 3T3 fibroblasts

PI3Kδ = PI3Kδ (Homo sapiens, UniProt O00329); test: Anti-FcεR1 induced CD63 expression in basophils from human whole blood; type: cell-based; set-up: Add 49 μl of patient's whole blood to each tube; endogenous in cells; host or cells: basophils in human whole blood; conditions: n=10, read-out: EC50 for FcεR1 (PI3K δ), CD63 positive basophils
Description: PI3K δ and γ signalling in basophils manifested by an alteration of anti-FcεR1 or fMLP induced CD63 expression is a useful pharmacodynamic marker determined using the Flow2CAST® kit (Buhlmann Laboratories, Switzerland). Briefly, it involves the following steps: • Mix the anti-coagulated blood sample by inverting the venipuncture tube several times; • Prepare fresh and pyrogen-free 3.5 ml polypropylene or polystyrene tubes suitable for Flow Cytometry measurements; • Add 49 μl of patient's whole blood to each tube; • Add 1 μl of 10% DMSO (background) or compound (10% DMSO) to the assigned tubes and mix gently. Incubate at room temperature for 15 minutes; • Pipet 50 μl of the Stimulation buffer (background) or anti-FcεRI Ab or or fMLP to each tube; • Add 100 μl of Stimulation Buffer to each tube; • Mix gently. Add 20 μl Staining Reagent (1:1 mix of FITC-CD63 and PE-CCR3) to each tube; • Mix gently, cover the tubes and incubate for 15 minutes at 37° C. in a water bath. […]
Percent CD63 positive cells within the gated basophil population were determined in different treatment groups and normalized to vehicle control.

[1] = test system: primary cells derived from B-cell lymphomas; test: Anticancer activity in patient derived B-lymphoma cells (Annexin V/PI); type: cell-based; conditions: 4 μM, 48-h incubation
Description: Primary cells from lymphoid tumors were exposed to the test compound [Compound A1] to assess the induction of cell death. Cells were derived from diffuse large B-cell lymphoma (DLBCL), mantle cell lymphoma (MCL), splenic marginal zone lymphoma (SMZL), extranodal marginal zone lymphoma (EMZL), or chronic lymphocytic leukemia (CLL, no.=1). Cells were treated with desired concentrations of the compound and apoptosis (Annexin V/PI) was assessed by flow-cytometry after a 48-h incubation period.

T1 sequence (P42338 whole entry, canonical isoform): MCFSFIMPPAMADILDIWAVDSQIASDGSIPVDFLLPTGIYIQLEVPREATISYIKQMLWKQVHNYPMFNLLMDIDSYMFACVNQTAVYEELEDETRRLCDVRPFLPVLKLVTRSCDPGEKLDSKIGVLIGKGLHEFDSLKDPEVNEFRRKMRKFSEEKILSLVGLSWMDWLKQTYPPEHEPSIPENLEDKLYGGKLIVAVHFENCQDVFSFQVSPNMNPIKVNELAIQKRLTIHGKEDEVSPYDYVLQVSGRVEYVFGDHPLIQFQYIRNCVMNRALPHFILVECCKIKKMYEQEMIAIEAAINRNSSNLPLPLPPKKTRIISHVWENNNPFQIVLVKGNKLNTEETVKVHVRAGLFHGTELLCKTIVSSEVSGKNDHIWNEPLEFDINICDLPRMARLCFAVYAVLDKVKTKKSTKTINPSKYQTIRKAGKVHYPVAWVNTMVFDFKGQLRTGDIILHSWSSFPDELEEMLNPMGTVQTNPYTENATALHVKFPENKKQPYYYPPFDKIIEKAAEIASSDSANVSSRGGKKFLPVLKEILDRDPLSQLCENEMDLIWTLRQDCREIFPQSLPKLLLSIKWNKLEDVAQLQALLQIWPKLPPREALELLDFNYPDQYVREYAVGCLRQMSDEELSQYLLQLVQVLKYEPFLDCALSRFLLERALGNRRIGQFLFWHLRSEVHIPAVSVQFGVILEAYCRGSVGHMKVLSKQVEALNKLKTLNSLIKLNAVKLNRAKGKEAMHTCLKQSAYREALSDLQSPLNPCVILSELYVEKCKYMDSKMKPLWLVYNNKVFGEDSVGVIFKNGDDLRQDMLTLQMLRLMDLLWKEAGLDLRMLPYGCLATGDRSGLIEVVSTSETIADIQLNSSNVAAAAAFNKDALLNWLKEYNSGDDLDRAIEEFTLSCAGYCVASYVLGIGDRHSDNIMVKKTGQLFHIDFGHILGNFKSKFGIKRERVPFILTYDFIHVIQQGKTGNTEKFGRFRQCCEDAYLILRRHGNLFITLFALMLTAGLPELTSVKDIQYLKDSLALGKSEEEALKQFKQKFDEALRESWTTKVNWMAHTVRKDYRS
T1 sequence (P27986 whole entry partner, canonical isoform): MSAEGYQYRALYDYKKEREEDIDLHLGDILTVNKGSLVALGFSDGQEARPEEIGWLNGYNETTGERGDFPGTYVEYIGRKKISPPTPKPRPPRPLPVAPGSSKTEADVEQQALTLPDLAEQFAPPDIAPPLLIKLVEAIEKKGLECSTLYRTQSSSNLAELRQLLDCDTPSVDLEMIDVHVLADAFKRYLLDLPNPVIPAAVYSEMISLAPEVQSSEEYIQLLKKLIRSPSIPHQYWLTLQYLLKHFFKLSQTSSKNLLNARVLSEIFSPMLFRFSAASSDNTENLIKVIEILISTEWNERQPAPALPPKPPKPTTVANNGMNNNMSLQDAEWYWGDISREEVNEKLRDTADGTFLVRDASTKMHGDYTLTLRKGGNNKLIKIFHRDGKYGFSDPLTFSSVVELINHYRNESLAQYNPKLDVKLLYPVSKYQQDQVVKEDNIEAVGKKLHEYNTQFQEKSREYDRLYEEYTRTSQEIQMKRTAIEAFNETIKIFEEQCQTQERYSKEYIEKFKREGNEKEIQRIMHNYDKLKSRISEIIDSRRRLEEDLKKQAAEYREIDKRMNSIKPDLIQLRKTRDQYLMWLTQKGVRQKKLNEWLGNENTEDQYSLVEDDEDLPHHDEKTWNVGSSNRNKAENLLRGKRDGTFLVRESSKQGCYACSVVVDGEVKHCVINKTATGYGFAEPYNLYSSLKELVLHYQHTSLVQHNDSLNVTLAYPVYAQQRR
Chain of PI3Kδ (O00329 whole entry): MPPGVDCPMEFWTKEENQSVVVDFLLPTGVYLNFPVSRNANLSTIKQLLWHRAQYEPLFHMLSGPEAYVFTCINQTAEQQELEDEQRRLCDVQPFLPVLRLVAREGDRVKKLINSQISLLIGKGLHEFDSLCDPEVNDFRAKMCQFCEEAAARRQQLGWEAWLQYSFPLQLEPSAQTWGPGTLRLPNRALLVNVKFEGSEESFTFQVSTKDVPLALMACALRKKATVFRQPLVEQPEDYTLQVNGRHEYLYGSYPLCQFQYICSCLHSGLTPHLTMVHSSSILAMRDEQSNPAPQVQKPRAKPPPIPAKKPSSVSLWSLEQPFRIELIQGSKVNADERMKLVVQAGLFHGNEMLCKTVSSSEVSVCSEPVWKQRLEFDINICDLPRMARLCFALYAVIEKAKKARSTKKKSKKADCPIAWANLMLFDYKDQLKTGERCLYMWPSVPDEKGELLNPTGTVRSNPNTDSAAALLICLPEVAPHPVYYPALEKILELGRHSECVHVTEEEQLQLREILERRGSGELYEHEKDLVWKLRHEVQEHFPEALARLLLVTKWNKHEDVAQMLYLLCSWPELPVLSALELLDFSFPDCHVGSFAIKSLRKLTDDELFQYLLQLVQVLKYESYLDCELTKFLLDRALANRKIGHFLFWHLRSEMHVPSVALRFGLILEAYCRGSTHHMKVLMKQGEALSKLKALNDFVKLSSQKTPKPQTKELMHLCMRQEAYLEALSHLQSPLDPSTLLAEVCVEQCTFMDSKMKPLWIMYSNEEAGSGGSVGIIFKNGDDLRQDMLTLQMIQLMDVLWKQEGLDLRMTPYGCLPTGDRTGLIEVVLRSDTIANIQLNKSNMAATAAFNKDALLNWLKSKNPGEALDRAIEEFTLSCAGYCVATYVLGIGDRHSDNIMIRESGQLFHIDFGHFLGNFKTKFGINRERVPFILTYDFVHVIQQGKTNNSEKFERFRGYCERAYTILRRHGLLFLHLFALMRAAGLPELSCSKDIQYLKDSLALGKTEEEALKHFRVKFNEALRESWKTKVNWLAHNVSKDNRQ
Chain of PI3Kδ (P27986 whole entry partner): as the sequence (P27986 whole entry partner, canonical isoform) above
Chain of Pi3K γ (P48736 whole entry, canonical isoform): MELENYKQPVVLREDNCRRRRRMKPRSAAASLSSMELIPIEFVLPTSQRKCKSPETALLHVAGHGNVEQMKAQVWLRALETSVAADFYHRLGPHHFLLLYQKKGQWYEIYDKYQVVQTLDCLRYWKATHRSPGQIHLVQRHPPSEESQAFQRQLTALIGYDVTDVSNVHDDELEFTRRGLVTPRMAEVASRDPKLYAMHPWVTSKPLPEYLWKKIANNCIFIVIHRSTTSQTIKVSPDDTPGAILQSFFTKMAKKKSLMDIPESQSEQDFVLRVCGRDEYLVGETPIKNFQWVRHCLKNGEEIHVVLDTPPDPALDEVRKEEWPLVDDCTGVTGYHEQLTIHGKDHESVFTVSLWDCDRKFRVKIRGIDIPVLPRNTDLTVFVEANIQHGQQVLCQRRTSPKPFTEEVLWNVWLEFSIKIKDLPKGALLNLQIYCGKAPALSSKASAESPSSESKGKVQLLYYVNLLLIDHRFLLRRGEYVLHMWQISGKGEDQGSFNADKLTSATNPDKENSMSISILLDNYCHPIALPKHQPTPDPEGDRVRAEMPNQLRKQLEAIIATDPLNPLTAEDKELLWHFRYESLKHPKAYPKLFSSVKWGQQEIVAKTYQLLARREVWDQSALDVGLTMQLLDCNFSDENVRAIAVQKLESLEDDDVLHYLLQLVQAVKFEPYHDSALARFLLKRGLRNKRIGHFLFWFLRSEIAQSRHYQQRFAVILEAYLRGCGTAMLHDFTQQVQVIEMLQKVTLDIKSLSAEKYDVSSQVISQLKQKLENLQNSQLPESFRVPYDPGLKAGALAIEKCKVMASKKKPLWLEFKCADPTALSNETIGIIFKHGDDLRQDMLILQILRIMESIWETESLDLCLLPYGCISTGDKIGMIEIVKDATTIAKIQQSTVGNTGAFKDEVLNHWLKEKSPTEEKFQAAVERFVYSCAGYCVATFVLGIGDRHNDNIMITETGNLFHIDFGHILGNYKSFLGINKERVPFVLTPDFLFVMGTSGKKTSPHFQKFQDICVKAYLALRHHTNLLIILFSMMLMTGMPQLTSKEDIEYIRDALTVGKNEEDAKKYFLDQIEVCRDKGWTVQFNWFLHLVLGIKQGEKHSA

- IC50 (Pi3K β): > 4000 nM
- EC50 (pAKT): 40 to 300 nM
- IC50 (Pi3K γ): 24.1 nM
- IC50 (PI3K beta): 2070 nM
- EC50 (PI3Kδ): < 40 nM
Compound: CC[C@H](Nc1ncnc2[nH]cnc12)c1oc2ccccc2c(=O)c1-c1cccc(F)c1 [Compound A1, (S)-2-(1-(9H-purin-6-ylamino)propyl)-3-(3-fluorophenyl)-4H-chromen-4-one]
- ED50 (Female Wistar rats): 6.5 mg/kg
- cell death (apoptosis, Annexin V/PI) [1]: increase in cell death
